Results from patent publication US8168651B2, “Protein kinase modulators” (Cylene Pharmaceuticals, Inc., priority 2008, dated 2012).
Like-named read-outs stand apart in the source and are kept apart here.

Columns and labels:
K-562 [1] = assay: Cell proliferation modulatory activity, K-562; assay type: cell-based; conditions: Homo sapiens, K562
recombinant human PIM1 = recombinant human PIM1 (Homo sapiens (Human), UniProt P11309); assay: PIM-1 kinase activity in cell-free in vitro assay; assay type: biochemical; conditions: for inhibition at 0.5 µM: 500 nM compound, read-out: PIM-1: % inh 500 nM
[2] = test system: HCT-116 human colorectal carcinoma cells; assay: Cell-proliferation assay using Alamar Blue dye; assay type: cell-based; conditions: Homo sapiens;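 also: cells exposed to compound for about 4 days, then Alamar Blue added and dye fluorescence read after about 4 h, compared with medium-only control wells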
MV-4-11 [3] = assay: Cell proliferation modulatory activity, MV-4-11; assay type: cell-based; conditions: Homo sapiens, MV4-11
K-562 [4] = assay: Cell proliferation modulatory activity, K-562; assay type: cell-based; conditions: Homo sapiens, K562; remark: listed apart in the source
Flt3 = Flt3 (Homo sapiens (Human), UniProt P36888); assay: FLT-3 kinase activity in cell free in vitro assay; assay type: biochemical; conditions: cell-free assay
Jurkat = assay: Cell proliferation modulatory activity, Jurkat; assay type: cell-based; conditions: Homo sapiens
recombinant human CK2 = recombinant human CK2 (Homo sapiens (Human), UniProt P68400); assay: CK2 assay (cell-free, 33P-ATP filter plate); assay type: biochemical; conditions: cell-free assay; for IC50: 15 um ATP, read-out: CK2 (15 um ATP) IC50; for inhibition at 0.5 µM: 500 nM compound, read-out: CK2: % inh 500 nM
MV-4-11 [5] = assay: Cell proliferation modulatory activity, MV-4-11; assay type: cell-based; conditions: Homo sapiens, MV4-11; MV-4-11 cells
K-562 [6] = assay: Cell proliferation modulatory activity, K-562; assay type: cell-based; conditions: Homo sapiens, K562; K-562 cells
MV-4-11 [7] = assay: Cell proliferation modulatory activity, MV-4-11; assay type: cell-based; conditions: Homo sapiens, MV4-11; remark: listed apart in the source
[8] = HCT-116, read-out: HCT-116 (uM), cell proliferation modulatory activity, HCT-116, second column
[9] = HCT-116, HCT-116, second HCT-116 column (c8), read-out: HCT-116 (uM), cell proliferation modulatory activity
[10] = HCT-116, second HCT-116 column (c8), read-out: HCT-116 (uM) cell proliferation modulatory activity

Sequence of recombinant human PIM1 (P11309 whole entry): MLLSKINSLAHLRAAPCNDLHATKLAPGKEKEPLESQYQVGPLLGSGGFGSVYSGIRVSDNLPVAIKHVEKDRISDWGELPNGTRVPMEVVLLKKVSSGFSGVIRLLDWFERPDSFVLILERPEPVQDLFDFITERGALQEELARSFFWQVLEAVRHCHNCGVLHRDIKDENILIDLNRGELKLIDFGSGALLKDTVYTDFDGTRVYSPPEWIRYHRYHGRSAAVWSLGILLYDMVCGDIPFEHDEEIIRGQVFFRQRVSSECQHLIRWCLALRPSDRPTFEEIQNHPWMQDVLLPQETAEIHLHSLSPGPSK
Sequence of Flt3 (P36888 27-993): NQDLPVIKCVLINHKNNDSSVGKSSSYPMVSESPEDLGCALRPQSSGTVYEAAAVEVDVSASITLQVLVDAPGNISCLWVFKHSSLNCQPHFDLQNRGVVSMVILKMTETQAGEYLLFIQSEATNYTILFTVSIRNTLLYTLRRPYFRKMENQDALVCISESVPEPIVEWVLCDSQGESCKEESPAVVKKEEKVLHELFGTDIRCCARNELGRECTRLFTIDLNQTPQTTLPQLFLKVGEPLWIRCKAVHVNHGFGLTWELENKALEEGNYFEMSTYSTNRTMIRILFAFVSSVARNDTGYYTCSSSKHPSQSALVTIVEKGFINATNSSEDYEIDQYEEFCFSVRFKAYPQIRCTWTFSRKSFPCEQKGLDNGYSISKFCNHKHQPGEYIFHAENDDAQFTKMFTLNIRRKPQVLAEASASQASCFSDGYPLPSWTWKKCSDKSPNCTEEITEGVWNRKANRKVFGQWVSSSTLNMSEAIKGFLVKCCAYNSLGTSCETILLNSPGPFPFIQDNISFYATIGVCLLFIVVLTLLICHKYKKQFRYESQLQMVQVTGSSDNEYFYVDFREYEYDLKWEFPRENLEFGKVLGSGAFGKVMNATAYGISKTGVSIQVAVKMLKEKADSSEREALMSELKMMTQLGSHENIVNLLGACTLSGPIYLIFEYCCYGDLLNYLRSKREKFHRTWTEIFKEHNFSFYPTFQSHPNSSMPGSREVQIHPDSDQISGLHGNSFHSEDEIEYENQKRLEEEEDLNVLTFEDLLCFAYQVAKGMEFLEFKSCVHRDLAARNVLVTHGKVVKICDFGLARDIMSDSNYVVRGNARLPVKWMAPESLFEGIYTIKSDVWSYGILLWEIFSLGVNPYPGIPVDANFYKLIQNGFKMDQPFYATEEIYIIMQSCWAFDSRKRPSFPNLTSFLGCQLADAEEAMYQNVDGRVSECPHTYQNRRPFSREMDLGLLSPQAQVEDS
Sequence of recombinant human CK2 (P68400 whole entry): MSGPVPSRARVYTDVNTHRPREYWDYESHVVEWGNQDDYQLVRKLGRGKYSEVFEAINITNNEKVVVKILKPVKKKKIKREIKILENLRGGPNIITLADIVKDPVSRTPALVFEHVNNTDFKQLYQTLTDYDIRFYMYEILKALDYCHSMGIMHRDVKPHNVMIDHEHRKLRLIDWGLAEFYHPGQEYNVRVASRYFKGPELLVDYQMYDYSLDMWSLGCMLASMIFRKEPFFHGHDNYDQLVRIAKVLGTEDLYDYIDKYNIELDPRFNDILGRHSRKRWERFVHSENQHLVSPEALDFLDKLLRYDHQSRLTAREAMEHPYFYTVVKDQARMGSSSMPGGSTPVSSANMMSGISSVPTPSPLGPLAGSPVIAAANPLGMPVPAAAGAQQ
Sequence of recombinant human CK2 (P67870 whole entry partner): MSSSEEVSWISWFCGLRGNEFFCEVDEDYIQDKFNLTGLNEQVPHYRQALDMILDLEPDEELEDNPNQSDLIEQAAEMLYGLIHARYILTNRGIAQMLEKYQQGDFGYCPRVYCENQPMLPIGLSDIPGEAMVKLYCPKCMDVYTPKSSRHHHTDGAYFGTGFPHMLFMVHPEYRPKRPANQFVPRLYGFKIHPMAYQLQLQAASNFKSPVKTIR

Row | Compound | IC50 (MV-4-11 [3]) [µM] | inhibition at 0.5 µM (recombinant human PIM1; cell-free assay) [%] | IC50 (K-562 [4]) [µM] | IC50 (Flt3; read-out: FLT-3) [µM] | IC50 [2, 9] [µM] | inhibition at 0.5 µM (recombinant human CK2) [%] | IC50 (MV-4-11 [5]) [µM] | IC50 (K-562 [6]) [µM] | IC50 (Flt3; read-out: FLT-3 (uM) IC50) [µM] | further results
1 | O=C(O)c1ccc2c(c1)nc(Nc1cccc(F)c1)c1ncncc12 | – | – | – | – | – | – | – | – | – | IC50 (K-562 [1]): 1.77 µM; inhibition at 0.5 µM (recombinant human PIM1; cell-free): 77.8%; IC50 (recombinant human PIM1; cell-free): 367 nM; IC50 [2, 8]: 7.1 µM
2 | OCc1ccc2c(c1)nc(Nc1cccc(Cl)c1)c1ccncc12 | 0.529 | 4.22 | 5.52 | 0.013 | – | – | – | – | – | IC50 ([2]; HCT-116, read-out: HCT-116 (uM), cell proliferation modulatory activity, HCT-116, second HCT-116 column (c8)): 4.28 µM
3 | NC(=O)c1ccc2c(c1)nc(Nc1cccc(C(F)(F)F)c1)c1nc(NC3CC3)ncc12 | 0.149 | 12.5 | 0.157 | 0.343 | – | – | – | – | – | IC50 (Jurkat): 1.16 µM
4 | CC(C)OC(=O)Nc1ccc2c(c1)nc(Nc1cccc(C(F)(F)F)c1)c1nc(NC3CC3)ncc12 | 0.108 | 10.1 | 0.061 | > 0.4 | – | – | – | – | – | IC50 (Jurkat): 1.16 µM
5 | O=C(NC1CC1)c1ccc2c(c1)nc(Nc1cccc(Cl)c1)c1ccncc12 | > 10 | -5.18 | > 10 | > 0.4 | > 10 | – | – | – | – | IC50 (recombinant human CK2): 487 nM; IC50 (Jurkat): 2.16 µM
6 | O=C(NC1CC1)c1ccc2c(c1)nc(NC1CC1)c1nc(NC3CC3)ncc12 | 0.497 | -11.9 | > 10 | – | 0.818 | – | – | – | – | IC50 (recombinant human CK2): > 750 nM; IC50 (Jurkat): 0.436 µM
7 | COCCNC(=O)c1ccc2c(c1)nc(Nc1cccc(Cl)c1)c1ccncc12 | 0.043 | -29.7 | > 10 | > 0.4 | > 10 | – | – | – | – | –
8 | O=C(c1ccc2c(c1)nc(Nc1cccc(Cl)c1)c1ccncc12)N1CCOCC1 | > 10 | -14.4 | > 10 | > 0.4 | > 10 | – | – | – | – | –
9 | O=C(NCc1cccnc1)c1ccc2c(c1)nc(Nc1cccc(Cl)c1)c1ccncc12 | 0.112 | -16.2 | > 10 | > 0.4 | > 10 | – | – | – | – | –
10 | CC(C)(C)OC(=O)N1CCN(C(=O)c2ccc3c(c2)nc(Nc2cccc(Cl)c2)c2ccncc23)CC1 | > 10 | -7.41 | > 10 | > 0.4 | 5.97 | – | – | – | – | –
11 | O=C(O)c1ccc2c(c1)nc(Nc1ccc(Br)cc1F)c1ccncc12 | – | – | – | – | – | – | 7.26 | > 10 | 0.087 | IC50 (recombinant human PIM1; cell-free assay): 339 nM; IC50 [2, 10]: > 10 µM
12 | O=C(O)c1ccc2c(c1)nc(Nc1cc(F)cc(Cl)c1)c1ccncc12 | – | 101 | – | – | – | 98.7 | 0.25 | 1.56 | 0.031 | IC50 (recombinant human PIM1; cell-free assay): 75 nM; IC50 [2, 10]: > 10 µM
13 | NNC(=O)c1ccc2c(c1)nc(Nc1cccc(Cl)c1)c1ccncc12 | – | -10.8 | – | – | – | 34.9 | 2.14 | > 10 | 0.075 | IC50 [2, 10]: > 10 µM
14 | O=C(O)c1ccc2c(c1)nc(NCCc1cccc(Cl)c1)c1ccncc12 [drawing 1559] | – | – | – | – | – | – | – | – | – | IC50 (K-562 [1]): 9.18 µM; inhibition at 0.5 µM (recombinant human PIM1; cell-free): 43.1%; IC50 (recombinant human PIM1; cell-free): 1060 nM; IC50 [2, 8]: > 10 µM
15 | O=C(O)c1ccc2c(c1)nc(NCCc1cccc(F)c1)c1ccncc12 [drawing 1560] | – | – | – | – | – | – | – | – | – | inhibition at 0.5 µM (recombinant human PIM1; cell-free): 74%; IC50 (recombinant human PIM1; cell-free): 351 nM; IC50 [2, 8]: > 10 µM; IC50 (MV-4-11 [7]): > 10 µM
16 | O=C(O)c1ccc2c(c1)nc(NCCCc1ccccc1)c1ccncc12 [drawing 1561] | – | – | – | – | – | – | – | – | – | IC50 (K-562 [1]): 7.17 µM; inhibition at 0.5 µM (recombinant human PIM1; cell-free): 69.7%; IC50 (recombinant human PIM1; cell-free): 441 nM; IC50 [2, 8]: > 10 µM
17 | NC(=O)c1ccc2c(c1)nc(Nc1cccc(Cl)c1)c1ccncc12 [drawing 1674] | 0.037 | -3.44 | 1.23 | 0.003 | 2.13 | 91.2 | – | – | – | IC50 (recombinant human CK2): 417 nM; IC50 (Jurkat): 0.91 µM

Second part, led by results:

Row | IC50 (MV-4-11 [3]) [µM] | inhibition at 0.5 µM (recombinant human PIM1; cell-free assay) [%] | IC50 (K-562 [4]) [µM] | IC50 (Flt3; read-out: FLT-3) [µM] | IC50 [2, 9] [µM] | inhibition at 0.5 µM (recombinant human CK2) [%] | IC50 (MV-4-11 [5]) [µM] | IC50 (K-562 [6]) [µM] | IC50 (Flt3; read-out: FLT-3 (uM) IC50) [µM] | Compound | further results
18 | – | -39.8 | > 10 | > 0.4 | > 10 | – | – | – | – | CNC(=O)c1ccc2c(c1)nc(Nc1cccc(Cl)c1)c1ccncc12 | IC50 (recombinant human CK2): > 750 nM; IC50 (Jurkat): 13.7 µM
19 | > 10 | 4.85 | > 10 | > 0.4 | 8.17 | – | – | – | – | CN(C)C(=O)c1ccc2c(c1)nc(Nc1cccc(Cl)c1)c1ccncc12 | IC50 (recombinant human CK2): > 750 nM; IC50 (Jurkat): 1.51 µM
20 | 0.069 | -0.772 | > 10 | > 0.4 | > 10 | – | – | – | – | O=C(Nc1ccccc1)c1ccc2c(c1)nc(Nc1cccc(Cl)c1)c1ccncc12 | –
21 | 0.181 | -12.8 | > 10 | > 0.4 | 2.5 | – | – | – | – | O=C(NCc1ccncc1)c1ccc2c(c1)nc(Nc1cccc(Cl)c1)c1ccncc12 | –
22 | 0.099 | 1.16 | > 10 | > 0.4 | > 10 | – | – | – | – | O=C(NCCN1CCOCC1)c1ccc2c(c1)nc(Nc1cccc(Cl)c1)c1ccncc12 | –
23 | > 10 | -11.1 | > 10 | 0.289 | 9.88 | – | – | – | – | O=C(NCc1ccccn1)c1ccc2c(c1)nc(Nc1cccc(Cl)c1)c1ccncc12 | –
24 | 0.095 | -29.4 | > 10 | 0.331 | > 10 | – | – | – | – | O=C(NCc1ccccc1)c1ccc2c(c1)nc(Nc1cccc(Cl)c1)c1ccncc12 | –
25 | > 10 | -28.4 | > 10 | > 0.4 | > 10 | – | – | – | – | CN1CCN(C(=O)c2ccc3c(c2)nc(Nc2cccc(Cl)c2)c2ccncc23)CC1 | –
26 | 0.171 | -11.8 | > 10 | > 0.4 | 2.67 | – | – | – | – | CN1CCCN(C(=O)c2ccc3c(c2)nc(Nc2cccc(Cl)c2)c2ccncc23)CC1 | –
27 | > 10 | -5.01 | > 10 | > 0.4 | > 10 | – | – | – | – | CC(=O)N1CCN(C(=O)c2ccc3c(c2)nc(Nc2cccc(Cl)c2)c2ccncc23)CC1 | –
28 | > 10 | -6.62 | > 10 | > 0.4 | > 10 | – | – | – | – | O=C(Nc1nccs1)c1ccc2c(c1)nc(Nc1cccc(Cl)c1)c1ccncc12 | –
29 | > 10 | -19.8 | > 10 | 0.362 | > 10 | – | – | – | – | Cc1cnc(CNC(=O)c2ccc3c(c2)nc(Nc2cccc(Cl)c2)c2ccncc23)cn1 | –
30 | > 10 | -19.8 | > 10 | > 0.4 | 7.22 | – | – | – | – | NCCNC(=O)c1ccc2c(c1)nc(Nc1cccc(Cl)c1)c1ccncc12 | IC50 (Jurkat): 7.67 µM
31 | – | -22.8 | – | – | – | -42.8 | 2.82 | > 10 | 0.344 | Clc1cccc(Nc2nc3ccccc3c3cnccc23)c1 | IC50 [2, 10]: > 10 µM
32 | – | 11.9 | – | – | – | 67.8 | > 10 | > 10 | > 0.4 | O=C(O)c1ccc2nc(Nc3cccc(Cl)c3)c3ccncc3c2c1 | IC50 [2, 10]: > 10 µM
33 | – | 71.5 | – | – | – | -9.32 | > 10 | > 10 | > 0.4 | O=C(O)c1ccc2c(c1)nc(Nc1cccc(Cl)c1)c1cnccc12 | IC50 (recombinant human PIM1; cell-free assay): 122 nM; IC50 [2, 10]: > 10 µM
34 | – | -9.45 | – | – | – | 66.1 | 0.373 | > 10 | 0.167 | NC(=O)c1ccc2c(c1)nc(Nc1ccc(F)c(Cl)c1)c1ccncc12 | IC50 [2, 10]: > 10 µM
35 | – | -0.614 | – | – | – | 29.9 | 0.501 | > 10 | 0.236 | Clc1cccc(Nc2nc3cc(-c4nnco4)ccc3c3cnccc23)c1 | IC50 [2, 10]: 5.17 µM
36 | – | 5.67 | – | – | – | 55.9 | 0.222 | > 10 | 0.012 | NC(=O)c1ccc2c(c1)nc(Nc1cc(F)cc(Cl)c1)c1ccncc12 | –
37 | – | 1.09 | – | – | – | 34.4 | 0.12 | 2.46 | 0.006 | NC(=O)c1ccc2c(c1)nc(Nc1cccc(C(F)(F)F)c1)c1ccncc12 | IC50 [2, 10]: 4.28 µM
38 | – | -15.6 | – | – | – | 14.2 | 0.691 | 2.61 | > 0.4 | CONC(=O)c1ccc2c(c1)nc(Nc1cccc(Cl)c1)c1ccncc12 | IC50 [2, 10]: 4.54 µM
39 | – | -19.3 | – | – | – | -2.18 | 1.06 | 0.546 | 0.09 | Clc1cccc(Nc2nc3cc(-c4nnc[nH]4)ccc3c3cnccc23)c1 | IC50 [2, 10]: > 10 µM
40 | – | -17.3 | – | > 0.4 | – | – | – | – | – | O=C(O)c1ccc2c(c1)nc(Nc1cccc(C(F)(F)F)c1)c1nc(NC3CC3)ncc12 [drawing 1596] | IC50 (Jurkat): 3.13 µM
